The results in this text go back to patent publication US20210128654A1, “COMPOSITION FOR TREATING, PREVENTING, OR IMPROVING MALE INFERTILITY” (Mugen General Incorporated Association, priority 2018, published 2021).

Type in all cases: in vivo
The test system of assay [1] is male testis-specific non-mitochondrial GPx4 knockout mouse. In words: Mating test of male infertility model mouse (number of pregnancies and child mice). Conditions: "VE high-content feed": vitamin E 100 mg + CE-2 feed 100 g, mating period 3 months. The source says:
In this Example, as a male infertility model mouse, a male testis-specific non-mitochondrial GPx4 knockout mouse was used (see, Non Patent Literature 2). The testis-specific non-mitochondrial GPx4 knockout mouse is a mouse deficient in non-mitochondrial phospholipid hydroperoxide glutathione peroxidase (cGPx4) in the testis and has the phenotypes listed in the following Table 1.
(§1) A single 3 weeks-old male testis-specific non-mitochondrial GPx4 knockout mouse was assigned to each of the four groups shown in Table 2 (below) and separately raised (singly per cage) up to 8 weeks-old. To a normal control group, mouse breeding feed CE-2 (CLEA Rodent Diet CE-2; a product manufactured by CLEA Japan, Inc.) was fed during the test period. As a positive control substance, vitamin E (Non Patent Literature 1), which is used in treatment for male infertility, was selected and a mixture of feed CE-2 and vitamin E was fed to a positive control substance administration group during the test period. The ratio of vitamin E in the mixture was 100 mg relative to 100 g of feed CE-2. To the test groups, a mixture of feed CE-2 and koji mold fermentation product obtained in Example 1 was fed during the test period. For a low dose group, a feed having a content of koji mold fermentation product of 0.5 wt % was used. For a high dose group, a feed having a content of koji mold fermentation product of 5.0 wt % was used. Feed CE-2 and feed CE-2 mixed with the positive control substance or a koji mold fermentation product were free to take and water was free to drink from a water-supply bottle. In the aforementioned conditions, mice were raised from 3 weeks-old to 8 weeks-old.
When male testis-specific non-mitochondrial GPx4 knockout mice grew up to be crossable (8 weeks-old) mice, three of 7 weeks-old BALB/c female mice were assigned to each cage and crossed with a single male testis-specific non-mitochondrial GPx4 knockout mouse. The mating period was 3 months. […]

For assay [2] the test system is unchanged. In words: Abnormal sperm ratio and sperm-tail fold angle by microscopy. The settings on record: "VE high-content feed": vitamin E 100 mg + CE-2 feed 100 g; FIG. 4.
Description: as §1, with “For a high dose group, a feed having a content of koji mold fermentation product of 5.0 wt % was used. Feed CE-2 and feed CE-2 mixed with the positive control substance or a koji mold fermentation product were free to take and water was free to drink from a water-supply bottle. In the aforementioned conditions, mice were raised from 3 weeks-old to 8 weeks-old.” left out
In a testis-specific non-mitochondrial GPx4 knockout mouse, a half or more of the sperms have an abnormal structure (a sperm tail is folded to form a hair-pin structure); in other words, abnormal sperm morphology. […] The sperms in a plurality of fields of view under the microscope were photographed, and the numbers of normal sperms and abnormal sperms in the photographs were counted, and then, an average ratio of abnormal sperms was calculated.

For assay [3] the test system is unchanged. The experiment in a line: Testis tissue observation (hematoxylin eosin), removal of spermatocytes. The settings on record: "VE high-content feed": vitamin E 100 mg + CE-2 feed 100 g; FIG. 6. The source says:
A single 3 weeks-old male testis-specific non-mitochondrial GPx4 knockout mouse was assigned to each of the four groups shown in Table 2 (below) and separately raised (singly per cage) up to 8 weeks-old. To a normal control group, mouse breeding feed CE-2 (CLEA Rodent Diet CE-2; a product manufactured by CLEA Japan, Inc.) was fed during the test period. As a positive control substance, vitamin E (Non Patent Literature 1), which is used in treatment for male infertility, was selected and a mixture of feed CE-2 and vitamin E was fed to a positive control substance administration group during the test period. The ratio of vitamin E in the mixture was 100 mg relative to 100 g of feed CE-2. To the test groups, a mixture of feed CE-2 and koji mold fermentation product obtained in Example 1 was fed during the test period. For a low dose group, a feed having a content of koji mold fermentation product of 0.5 wt % was used. For a high dose group, a feed having a content of koji mold fermentation product of 5.0 wt % was used. Feed CE-2 and feed CE-2 mixed with the positive control substance or a koji mold fermentation product were free to take and water was free to drink from a water-supply bottle. In the aforementioned conditions, mice were raised from 3 weeks-old to 8 weeks-old. […]

On to vitamin E, for which the “total number of child mice” value in assay [1] (3 females, FIG. 2b) is reported as 60. For the same substance, the “number of child mice per delivery of the female mice” value in assay [1] (FIG. 2c) amounted to 7. Further, in assay [1] (single male x 3 BALB/c females, FIG. 2a), the “total number of pregnancies of three female mice” value turned out to be 8. Further, the “significantly low ratio of abnormal sperms” value in assay [2] was “not observed”. Besides, the “removal of the spermatocytes in testis tissue” value in assay [3] is on record as “improved”.
